Laboratory results published in the NIST ThermoML archive (doi:10.1021/je060271a).
Values joined by “and” are separate entries in the source; they are usually repeats but may differ in a detail not shown here. Equal entries are not always repeated. Numbers after ± are expanded uncertainties.

Settings: 343.15 K, Liquid, Vibrating tube method

CCCCCCC(=O)OCC(COC(=O)CCCCCC)(COC(=O)CCCCCC)COC(=O)CCCCCC [pentaerythritol tetraheptanoate]
Settings | mass density
143.4 kPa | 940.7 ± 1.1 kg/m3
144.1 kPa | 940.6 ± 1.1 kg/m3
144.3 kPa | 940.8 ± 1.1 kg/m3
144.8 kPa | 940.7 ± 1.1 kg/m3 and 940.6 ± 1.1 kg/m3
145 kPa | 940.6 ± 1.1 kg/m3 and 940.7 ± 1.1 kg/m3
145.7 kPa | 940.7 ± 1.1 kg/m3
145.9 kPa | 940.6 ± 1.1 kg/m3
146.2 kPa | 940.6 ± 1.1 kg/m3
146.4 kPa | 940.7 ± 1.1 kg/m3
146.9 kPa | 940.6 ± 1.1 kg/m3
147.3 kPa | 940.6 ± 1.1 kg/m3
147.6 kPa | 940.7 ± 1.1 kg/m3
148.1 kPa | 940.8 ± 1.1 kg/m3
148.5 kPa | 940.7 ± 1.1 kg/m3
148.8 kPa | 940.6 ± 1.1 kg/m3
149 kPa | 940.7 ± 1.1 kg/m3
149.2 kPa | 940.7 ± 1.1 kg/m3
149.7 kPa | 940.6 ± 1.1 kg/m3
149.9 kPa | 940.6 ± 1.1 kg/m3
150 kPa | 940.7 ± 1.1 kg/m3
150.2 kPa | 940.7 ± 1.1 kg/m3
150.4 kPa | 940.8 ± 1.1 kg/m3
151.1 kPa | 940.6 ± 1.1 kg/m3
151.3 kPa | 940.7 ± 1.1 kg/m3
151.8 kPa | 940.7 ± 1.1 kg/m3 and 940.6 ± 1.1 kg/m3
151.9 kPa | 940.6 ± 1.1 kg/m3
152.5 kPa | 940.7 ± 1.1 kg/m3
153 kPa | 940.8 ± 1.1 kg/m3
153.2 kPa | 940.8 ± 1.1 kg/m3
153.7 kPa | 940.8 ± 1.1 kg/m3
153.9 kPa | 940.7 ± 1.1 kg/m3
154.2 kPa | 940.7 ± 1.1 kg/m3
154.9 kPa | 940.7 ± 1.1 kg/m3
155.1 kPa | 940.7 ± 1.1 kg/m3
155.6 kPa | 940.7 ± 1.1 kg/m3
155.8 kPa | 940.7 ± 1.1 kg/m3
155.9 kPa | 940.8 ± 1.1 kg/m3
156.3 kPa | 940.7 ± 1.1 kg/m3
156.8 kPa | 940.7 ± 1.1 kg/m3
157 kPa | 940.7 ± 1.1 kg/m3
157.5 kPa | 940.7 ± 1.1 kg/m3
157.9 kPa | 940.7 ± 1.1 kg/m3
158.2 kPa | 940.7 ± 1.1 kg/m3
159.1 kPa | 940.7 ± 1.1 kg/m3
159.2 kPa | 940.8 ± 1.1 kg/m3
159.6 kPa | 940.7 ± 1.1 kg/m3
159.9 kPa | 940.7 ± 1.1 kg/m3
160.6 kPa | 940.7 ± 1.1 kg/m3
161.3 kPa | 940.7 ± 1.1 kg/m3
161.5 kPa | 940.6 ± 1.1 kg/m3
162.2 kPa | 940.6 ± 1.1 kg/m3
162.6 kPa | 940.6 ± 1.1 kg/m3
163.3 kPa | 940.8 ± 1.1 kg/m3
163.4 kPa | 940.7 ± 1.1 kg/m3
163.9 kPa | 940.7 ± 1.1 kg/m3
164.5 kPa | 940.7 ± 1.1 kg/m3
164.8 kPa | 940.7 ± 1.1 kg/m3
165.2 kPa | 940.7 ± 1.1 kg/m3
165.7 kPa | 940.7 ± 1.1 kg/m3
166.2 kPa | 940.8 ± 1.1 kg/m3
166.7 kPa | 940.6 ± 1.1 kg/m3
167.3 kPa | 940.6 ± 1.1 kg/m3
167.9 kPa | 940.6 ± 1.1 kg/m3
168.3 kPa | 940.8 ± 1.1 kg/m3
168.6 kPa | 940.7 ± 1.1 kg/m3
169.2 kPa | 940.7 ± 1.1 kg/m3
169.9 kPa | 940.6 ± 1.1 kg/m3
170.4 kPa | 940.8 ± 1.1 kg/m3
170.9 kPa | 940.6 ± 1.1 kg/m3
171.2 kPa | 940.7 ± 1.1 kg/m3
171.8 kPa | 940.6 ± 1.1 kg/m3
172.3 kPa | 940.6 ± 1.1 kg/m3
172.8 kPa | 940.7 ± 1.1 kg/m3
173 kPa | 940.7 ± 1.1 kg/m3
173.2 kPa | 940.7 ± 1.1 kg/m3
173.7 kPa | 940.7 ± 1.1 kg/m3
174.4 kPa | 940.6 ± 1.1 kg/m3
174.9 kPa | 940.7 ± 1.1 kg/m3
175.2 kPa | 940.6 ± 1.1 kg/m3
175.9 kPa | 940.7 ± 1.1 kg/m3
176.5 kPa | 940.8 ± 1.1 kg/m3
177.1 kPa | 940.7 ± 1.1 kg/m3
178 kPa | 940.7 ± 1.1 kg/m3
178.4 kPa | 940.6 ± 1.1 kg/m3
178.9 kPa | 940.7 ± 1.1 kg/m3
179.6 kPa | 940.7 ± 1.1 kg/m3
180.8 kPa | 940.7 ± 1.1 kg/m3
181.5 kPa | 940.6 ± 1.1 kg/m3
182.2 kPa | 940.7 ± 1.1 kg/m3
182.7 kPa | 940.8 ± 1.1 kg/m3
183.2 kPa | 940.7 ± 1.1 kg/m3
184.1 kPa | 940.6 ± 1.1 kg/m3
184.8 kPa | 940.8 ± 1.1 kg/m3
185.3 kPa | 940.6 ± 1.1 kg/m3
185.8 kPa | 940.8 ± 1.1 kg/m3
186.7 kPa | 940.7 ± 1.1 kg/m3
187.1 kPa | 940.6 ± 1.1 kg/m3
188.1 kPa | 940.7 ± 1.1 kg/m3
188.8 kPa | 940.6 ± 1.1 kg/m3
189.3 kPa | 940.7 ± 1.1 kg/m3
190 kPa | 940.8 ± 1.1 kg/m3
191.1 kPa | 940.6 ± 1.1 kg/m3
191.7 kPa | 940.6 ± 1.1 kg/m3
192.3 kPa | 940.7 ± 1.1 kg/m3
193.1 kPa | 940.6 ± 1.1 kg/m3
193.6 kPa | 940.6 ± 1.1 kg/m3
194.3 kPa | 940.7 ± 1.1 kg/m3
195.4 kPa | 940.8 ± 1.1 kg/m3
196.1 kPa | 940.8 ± 1.1 kg/m3
197.1 kPa | 940.7 ± 1.1 kg/m3
197.7 kPa | 940.8 ± 1.1 kg/m3
198.3 kPa | 940.8 ± 1.1 kg/m3
199.4 kPa | 940.6 ± 1.1 kg/m3
200.6 kPa | 940.7 ± 1.1 kg/m3
201.5 kPa | 940.8 ± 1.1 kg/m3
202.5 kPa | 940.8 ± 1.1 kg/m3
203.4 kPa | 940.7 ± 1.1 kg/m3
204.1 kPa | 940.7 ± 1.1 kg/m3
205.3 kPa | 940.7 ± 1.1 kg/m3
206 kPa | 940.7 ± 1.1 kg/m3
206.9 kPa | 940.9 ± 1.1 kg/m3
207.7 kPa | 940.8 ± 1.1 kg/m3
208.6 kPa | 940.7 ± 1.1 kg/m3
210 kPa | 940.7 ± 1.1 kg/m3
211 kPa | 940.6 ± 1.1 kg/m3
211.7 kPa | 940.7 ± 1.1 kg/m3
212.8 kPa | 940.9 ± 1.1 kg/m3
213.6 kPa | 940.7 ± 1.1 kg/m3
214.8 kPa | 940.7 ± 1.1 kg/m3
215.9 kPa | 940.7 ± 1.1 kg/m3
217.1 kPa | 940.8 ± 1.1 kg/m3
218 kPa | 940.8 ± 1.1 kg/m3
219 kPa | 940.7 ± 1.1 kg/m3
220.2 kPa | 940.8 ± 1.1 kg/m3
222.7 kPa | 940.7 ± 1.1 kg/m3
224.1 kPa | 940.8 ± 1.1 kg/m3
225.1 kPa | 940.7 ± 1.1 kg/m3
226.1 kPa | 940.7 ± 1.1 kg/m3
227 kPa | 940.8 ± 1.1 kg/m3
228.6 kPa | 940.8 ± 1.1 kg/m3
229.8 kPa | 940.8 ± 1.1 kg/m3
231 kPa | 940.7 ± 1.1 kg/m3
232.2 kPa | 940.7 ± 1.1 kg/m3
233.4 kPa | 940.6 ± 1.1 kg/m3
234.5 kPa | 940.7 ± 1.1 kg/m3
236.2 kPa | 940.7 ± 1.1 kg/m3
237.9 kPa | 940.8 ± 1.1 kg/m3
239.3 kPa | 940.7 ± 1.1 kg/m3
241.1 kPa | 940.7 ± 1.1 kg/m3
242 kPa | 940.7 ± 1.1 kg/m3
243.9 kPa | 940.6 ± 1.1 kg/m3
244.9 kPa | 940.7 ± 1.1 kg/m3
246.3 kPa | 940.8 ± 1.1 kg/m3
248 kPa | 940.6 ± 1.1 kg/m3
250 kPa | 940.7 ± 1.1 kg/m3
251 kPa | 940.7 ± 1.1 kg/m3
252.9 kPa | 940.8 ± 1.1 kg/m3
254.6 kPa | 940.7 ± 1.1 kg/m3
255.8 kPa | 940.8 ± 1.1 kg/m3
257.9 kPa | 940.7 ± 1.1 kg/m3
259.5 kPa | 940.8 ± 1.1 kg/m3
260.5 kPa | 940.8 ± 1.1 kg/m3
262.3 kPa | 940.8 ± 1.1 kg/m3
263.7 kPa | 940.7 ± 1.1 kg/m3
265.9 kPa | 940.8 ± 1.1 kg/m3
268 kPa | 940.8 ± 1.1 kg/m3
269.6 kPa | 940.6 ± 1.1 kg/m3
271.8 kPa | 940.8 ± 1.1 kg/m3
273.9 kPa | 940.8 ± 1.1 kg/m3
276.2 kPa | 940.7 ± 1.1 kg/m3
277.7 kPa | 940.7 ± 1.1 kg/m3
279.5 kPa | 940.8 ± 1.1 kg/m3
281.6 kPa | 940.7 ± 1.1 kg/m3
284.2 kPa | 940.8 ± 1.1 kg/m3
287.1 kPa | 940.8 ± 1.1 kg/m3
288.7 kPa | 940.8 ± 1.1 kg/m3
291.3 kPa | 940.8 ± 1.1 kg/m3
293.5 kPa | 940.9 ± 1.1 kg/m3
295.8 kPa | 940.7 ± 1.1 kg/m3
297.9 kPa | 940.8 ± 1.1 kg/m3
302.9 kPa | 940.9 ± 1.1 kg/m3
305.2 kPa | 940.8 ± 1.1 kg/m3
308.3 kPa | 940.8 ± 1.1 kg/m3
310.8 kPa | 940.8 ± 1.1 kg/m3
314.1 kPa | 940.9 ± 1.1 kg/m3
316.5 kPa | 940.9 ± 1.1 kg/m3
319.1 kPa | 940.8 ± 1.1 kg/m3
321.4 kPa | 940.8 ± 1.1 kg/m3
324.7 kPa | 940.8 ± 1.1 kg/m3
327.3 kPa | 940.7 ± 1.1 kg/m3
330.2 kPa | 940.7 ± 1.1 kg/m3
333.5 kPa | 940.9 ± 1.1 kg/m3
336 kPa | 940.7 ± 1.1 kg/m3
340 kPa | 940.7 ± 1.1 kg/m3
343.3 kPa | 940.9 ± 1.1 kg/m3
346.2 kPa | 940.8 ± 1.1 kg/m3
349.4 kPa | 940.8 ± 1.1 kg/m3
353.2 kPa | 941 ± 1.1 kg/m3
356.5 kPa | 940.7 ± 1.1 kg/m3
359.8 kPa | 940.9 ± 1.1 kg/m3
364.3 kPa | 940.9 ± 1.1 kg/m3
367.4 kPa | 940.8 ± 1.1 kg/m3
371.8 kPa | 940.8 ± 1.1 kg/m3
375.3 kPa | 940.8 ± 1.1 kg/m3
378.9 kPa | 940.8 ± 1.1 kg/m3
382.9 kPa | 941 ± 1.1 kg/m3
387.8 kPa | 940.9 ± 1.1 kg/m3
391.6 kPa | 940.9 ± 1.1 kg/m3
395.9 kPa | 940.9 ± 1.1 kg/m3
400.5 kPa | 940.9 ± 1.1 kg/m3
405 kPa | 940.9 ± 1.1 kg/m3
410.2 kPa | 941 ± 1.1 kg/m3
414.7 kPa | 941 ± 1.1 kg/m3
419.2 kPa | 940.9 ± 1.1 kg/m3
423.8 kPa | 940.9 ± 1.1 kg/m3
429.5 kPa | 940.8 ± 1.1 kg/m3
434.5 kPa | 940.9 ± 1.1 kg/m3
440.6 kPa | 940.9 ± 1.1 kg/m3
445.7 kPa | 940.9 ± 1.1 kg/m3
451.2 kPa | 941 ± 1.1 kg/m3
457.5 kPa | 941 ± 1.1 kg/m3
463.2 kPa | 940.9 ± 1.1 kg/m3
468.9 kPa | 940.8 ± 1.1 kg/m3
